≈ marks a conversion by molar mass, not a printed value. Like-named read-outs stand apart in the source and are kept apart here.
System: Mycobacterium tuberculosis H37Rv
Test: Mycobacterium tuberculosis H37Rv Inhibition Assay
Type: cell-based
[1] = ATCC 25618 / H37Rv, H37Rv strain (ATCC25618), Middlebrook 7H9, resazurin fluorescence, read-out: MtB MIC
[2] = H37Rv inhibition assay, read-out: MIC value

SMILES | MIC [1] [µg/mL] | MIC [2] [µg/mL] | MIC (ATCC 25618 / H37Rv, read-out: MtB MIC) [µg/mL]
Cl.O=c1ccc2ncc(=O)n3c2n1C[C@H]3CN1CCC(NCc2ccc(F)c(C(F)(F)F)c2)CC1 [Example 4, (2R)-2-{[4-({[4-fluoro-3-(trifluoromethyl)phenyl]methyl}amino)-1-piperidinyl]methyl}-1,2-dihydro-3H,8H-2a,5,8a-triazaacenaphthylene-3,8-dione hydrochloride] | 0.04 | – | –
O=c1ccc2ncc(=O)n3c2n1CC3CN1CCC(NCc2ccc(OC(F)(F)F)cc2)CC1 (stereo not drawn) [Example 27, 2-({4-[({4-[(trifluoromethyl)oxy]phenyl}methyl)amino]-1-piperidinyl}methyl)-1,2-dihydro-3H,8H-2a,5,8a-triazaacenaphthylene-3,8-dione] | 2.38 (≈ 5 µM) | > 1 | –
Cc1cc(CNC2CCN(C[C@@H]3Cn4c(=O)ccc5ncc(=O)n3c54)CC2)ccc1F.Cl [Example 6, (2R)-2-[(4-{[(4-fluoro-3-methylphenyl)methyl]amino}-1-piperidinyl)methyl]-1,2-dihydro-3H,8H-2a,5,8a-triazaacenaphthylene-3,8-dione hydrochloride] | 0.29 | – | –
O=c1ccc2ncc(=O)n3c2n1CC3CN1CCC(NCc2ccc(C(F)(F)F)cc2)CC1 (stereo not drawn) [Example 28, 2-{[4-({[4-(trifluoromethyl)phenyl]methyl}amino)-1-piperidinyl]methyl}-1,2-dihydro-3H,8H-2a,5,8a-triazaacenaphthylene-3,8-dione] | 0.144 (≈ 0.313 µM) | – | –
Cc1ncc(CNC2CCN(C[C@@H]3Cn4c(=O)cnc5ccc(=O)n3c54)CC2)cc1Cl.Cl [Example 8, (1R)-1-[(4-{[(5-chloro-6-methyl-3-pyridinyl)methyl]amino}-1-piperidinyl)methyl]-1,2-dihydro-3H,8H-2a,5,8a-triazaacenaphthylene-3,8-dione hydrochloride] | 0.08 | – | –
Cc1ccc(CNC2CCN(CC3Cn4c(=O)ccc5ncc(=O)n3c54)CC2)cc1F (stereo not drawn) [Example 43, 2-[(4-{[(3-fluoro-4-methylphenyl)methyl]amino}-1-piperidinyl)methyl]-1,2-dihydro-3H,8H-2a,5,8a-triazaacenaphthylene-3,8-dione] | 0.066 (≈ 0.156 µM) | – | –
O=c1cnc2ccc(=O)n3c2n1C[C@H]3CN1CCC(NCc2ccc(C(F)(F)F)nc2)CC1 [Example 11, (1R)-1-{[4-({[6-(trifluoromethyl)-3-pyridinyl]methyl}amino)-1-piperidinyl]methyl}-1,2-dihydro-3H,8H-2a,5,8a-triazaacenaphthylene-3,8-dione] | 0.14 (≈ 0.304 µM) | – | –
O=c1ccc2ncc(=O)n3c2n1CC3CN1CCC(NCc2cc(Br)cs2)CC1 (stereo not drawn) [Example 35, 2-[(4-{[(4-bromo-2-thienyl)methyl]amino}-1-piperidinyl)methyl]-1,2-dihydro-3H,8H-2a,5,8a-triazaacenaphthylene-3,8-dione] | 1.19 (≈ 2.5 µM) | > 1 | –
O=c1ccc2ccc(=O)n3c2n1C[C@H]3CN1CCC(NCc2ccc(CO)c(Cl)c2)CC1 [Example 64, (1R)-1-{[4-({[3-chloro-4-(hydroxymethyl)phenyl]methyl}amino)-1-piperidinyl]methyl}-1,2-dihydro-4H,9H-imidazo[1,2,3-ij]-1,8-naphthyridine-4,9-dione] | – | > 1 | –
O=c1ccc2ccc(=O)n3c2n1C[C@H]3CN1CCC(NCc2ccc(C(F)(F)F)nn2)CC1 [Example 18, (1R)-1-{[4-({[6-(trifluoromethyl)-3-pyridazinyl]methyl}amino)-1-piperidinyl]methyl}-1,2-dihydro-4H,9H-imidazo[1,2,3-ij]-1,8-naphthyridine-4,9-dione] | 0.432 (≈ 0.938 µM) | – | –
Cc1ncc(CNC2CCN(C[C@H]3Cn4c(=O)ccc5ncc(=O)n3c54)CC2)cc1Cl [Example 53, (2S)-2-[(4-{[(5-chloro-6-methyl-3-pyridinyl)methyl]amino}-1-piperidinyl)methyl]-1,2-dihydro-3H,8H-2a,5,8a-triazaacenaphthylene-3,8-dione] | 0.83 (≈ 1.88 µM) | – | –
Cl.O=c1ccc2ncc(=O)n3c2n1CC3CN1CCC(NCc2ccc(C(F)(F)F)nc2)CC1 (stereo not drawn) [Example 20, 2-{[4-({[6-(trifluoromethyl)-3-pyridinyl]methyl}amino)-1-piperidinyl]methyl}-1,2-dihydro-3H,8H-2a,5,8a-triazaacenaphthylene-3,8-dione hydrochloride] | 0.311 | – | –
O=c1ccc2ccc(=O)n3c2n1C[C@H]3CN1CCC(NCc2ccc(C(F)(F)F)nc2)CC1 [Example 9, (1R)-1-{[4-({[6-(trifluoromethyl)-3-pyridinyl]methyl}amino)-1-piperidinyl]methyl}-1,2-dihydro-4H,9H-imidazo[1,2,3-ij]-1,8-naphthyridine-4,9-dione] | – | – | 0.14 (≈ 0.305 µM)
Cl.N#Cc1ncc(CNC2CCN(C[C@@H]3Cn4c(=O)ccc5ccc(=O)n3c54)CC2)cc1Cl [Example 50, 3-chloro-5-{[(1-{[(1R)-4,9-dioxo-1,2-dihydro-4H,9H-imidazo[1,2,3-ij]-1,8-naphthyridin-1-yl]methyl}-4-piperidinyl)amino]methyl}-2-pyridinecarbonitrile dihydrochloride] | 0.082 | – | –
O=c1ccc2ncc(=O)n3c2n1C[C@@H]3CN1CCC(NCc2ccc(C(F)(F)F)nc2)CC1 [Example 48, (2S)-2-{[4-({[6-(trifluoromethyl)-3-pyridinyl]methyl}amino)-1-piperidinyl]methyl}-1,2-dihydro-3H,8H-2a,5,8a-triazaacenaphthylene-3,8-dione] | 2.3 (≈ 5 µM) | > 1 | –
O=c1ccc2ncc(=O)n3c2n1CC3CN1CCC(NCc2ccc(Br)cn2)CC1 (stereo not drawn) [Example 40, 2-[(4-{[(5-bromo-2-pyridinyl)methyl]amino}-1-piperidinyl)methyl]-1,2-dihydro-3H,8H-2a,5,8a-triazaacenaphthylene-3,8-dione] | 1.18 (≈ 2.5 µM) | > 1 | –
COc1ccc(CNC2CCN(CC3Cn4c(=O)ccc5ncc(=O)n3c54)CC2)cc1Cl (stereo not drawn) [Example 39, 2-{[4-({[3-chloro-4-(methyloxy)phenyl]methyl}amino)-1-piperidinyl]methyl}-1,2-dihydro-3H,8H-2a,5,8a-triazaacenaphthylene-3,8-dione] | 1.14 (≈ 2.5 µM) | > 1 | –
Cc1ncc(CNC2CCN(C[C@@H]3Cn4c(=O)ccc5ccc(=O)n3c54)CC2)cc1F [Example 63, (1R)-1-[(4-{[(5-fluoro-6-methyl-3-pyridinyl)methyl]amino}-1-piperidinyl)methyl]-1,2-dihydro-4H,9H-imidazo[1,2,3-ij]-1,8-naphthyridine-4,9-dione] | – | > 1 | –
O=c1ccc2ncc(=O)n3c2n1CC3CN1CCC(NCc2cnc(Cl)s2)CC1 (stereo not drawn) [Example 37, 2-[(4-{[(2-chloro-1,3-thiazol-5-yl)methyl]amino}-1-piperidinyl)methyl]-1,2-dihydro-3H,8H-2a,5,8a-triazaacenaphthylene-3,8-dione] | 2.17 (≈ 5 µM) | – | –
O=c1ccc2ncc(=O)n3c2n1CC3CN1CCC(NCc2cncc(Br)c2)CC1 (stereo not drawn) [Example 41, 2-[(4-{[(5-bromo-3-pyridinyl)methyl]amino}-1-piperidinyl)methyl]-1,2-dihydro-3H,8H-2a,5,8a-triazaacenaphthylene-3,8-dione] | 0.884 (≈ 1.88 µM) | – | –
Cc1cc(CNC2CCN(CC3Cn4c(=O)ccc5ncc(=O)n3c54)CC2)cnc1C (stereo not drawn) [Example 14, 2-[(4-{[(5,6-dimethyl-3-pyridinyl)methyl]amino}-1-piperidinyl)methyl]-1,2-dihydro-3H,8H-2a,5,8a-triazaacenaphthylene-3,8-dione] | 2.1 (≈ 5 µM) | > 1 | –

Reference: patent US8097628B2, “Compounds” (Glaxo Group Limited, priority 2008, dated 2012)
